Test results reported in article PMC9250534, “Synthesis and direct assay of large macrocycle diversities by combinatorial late-stage modification at picomole scale” (Nature Communications, 2022).
Values belong to the compound of their own block, whether it stands above or below them.

Target: MDM2 (Homo sapiens, UniProt Q00987)
Experiment: MDM2 binding screen: displacement of fluorescent p53 peptide probe FP53 (fluorescence polarization)
Details: for fraction fluorescent probe displaced, Screen: initial screen; for fraction fluorescent probe displaced, Screen / fraction fluorescent probe displaced, Replicate: crude macrocycle reactions
Method: We screened Library 2 in 384-microwell plates by dispensing the target protein MDM2 and reporter peptide into the wells containing the macrocycle reactions.
The products were screened for displacement of a p53-based fluorescent peptide from human MDM2. Final macrocycle concentrations were 10 µM. For each macrocycle, the MDM2 binding was measured once.
One fluorescence anisotropy reading was taken with a Tecan Infinite F200 Pro fluorescence plate reader (excitation at 485 nm, emission at 535 nm) at 25 °C. Data was collected and exported using the Tecan Infinite M200 Pro instrument software. The data was analyzed by Excel (version 2016).

[1] = crude reaction of macrocycle scaffold with Acid 25, (initial screen)
[2] = crude reaction of macrocycle scaffold with Acid 25, replicate
[3] = crude reaction of macrocycle scaffold with Acid 91, (initial screen)
[4] = crude reaction of macrocycle scaffold with Acid 91, replicate

Chain of MDM2 (Q00987 whole entry): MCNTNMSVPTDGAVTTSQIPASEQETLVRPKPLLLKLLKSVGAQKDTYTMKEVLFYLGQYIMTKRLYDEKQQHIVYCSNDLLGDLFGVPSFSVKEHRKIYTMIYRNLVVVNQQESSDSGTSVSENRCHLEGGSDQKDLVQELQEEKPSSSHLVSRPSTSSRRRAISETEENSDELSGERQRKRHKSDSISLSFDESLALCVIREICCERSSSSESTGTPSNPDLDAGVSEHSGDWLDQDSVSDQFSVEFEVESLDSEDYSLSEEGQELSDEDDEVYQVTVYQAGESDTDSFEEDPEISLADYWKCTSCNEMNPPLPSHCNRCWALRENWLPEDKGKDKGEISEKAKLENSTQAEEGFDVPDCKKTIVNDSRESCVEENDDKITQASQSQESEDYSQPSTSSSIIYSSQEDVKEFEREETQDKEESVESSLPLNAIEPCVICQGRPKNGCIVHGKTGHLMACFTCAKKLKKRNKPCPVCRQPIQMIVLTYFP

SMILES: O=C1CCSSCCNC(=O)C2(CCN(C(=O)c3ccc(Cl)s3)CC2)NC(=O)[C@H](Cc2c[nH]c3ccccc23)NC(=O)CCN1 [X B2 W D6 Acid 14]
fraction fluorescent probe displaced, Screen (Acid 14): 0.14
fraction fluorescent probe displaced, Replicate (Acid 14, replicate): 0.0465

SMILES: O=C1CCSSCCNC(=O)C2(CCN(C(=O)C=Cc3ccccc3)CC2)NC(=O)C(Cc2c[nH]c3ccccc23)NC(=O)CCN1 (stereo not shown) [X B2 W D6 Acid 91]
fraction fluorescent probe displaced, Screen (Acid 91): 0.0563
fraction fluorescent probe displaced, Replicate (Acid 91, replicate): 0.07

SMILES: O=C1CCSSCCNC(=O)C2CN(C(=O)c3ccc(Cl)cc3)CCN2C(=O)C(Cc2c[nH]c3ccccc23)NC(=O)CCN1 (stereo not shown) [X B2 W D7 Acid 25]
fraction fluorescent probe displaced, Screen (Acid 25): 0.0569
fraction fluorescent probe displaced, Replicate (Acid 25, replicate): 0.10

SMILES: O=C(NCC1NC(=O)C2CCCN(C2)C(=O)CCSSCCNC(=O)C(Cc2ccccc2)NC1=O)c1ccc(Cl)s1 (stereo not shown) [X B4 D3 F Acid 14]
fraction fluorescent probe displaced, Screen (Acid 14): 0.14
fraction fluorescent probe displaced, Replicate (Acid 14, replicate): 0.15

SMILES: O=C(C=Cc1ccccc1)NCC1NC(=O)C2CCCN(C2)C(=O)CCSSCCNC(=O)C(Cc2c[nH]c3ccccc23)NC1=O (stereo not shown) [X B4 D3 W Acid 91]
fraction fluorescent probe displaced, Screen (Acid 91): 0.81
fraction fluorescent probe displaced, Replicate (Acid 91, replicate): 0.49

SMILES: O=C(N[C@H]1C[C@H]2C(=O)N[C@@H](Cc3c[nH]c4ccccc34)C(=O)NCCSSCCC(=O)N3CCC[C@@H](C3)C(=O)N2C1)c1ccc(Cl)s1 [X B4 D5 W Acid 14]
fraction fluorescent probe displaced, Screen (Acid 14): 0.11
fraction fluorescent probe displaced, Replicate (Acid 14, replicate): 0.0211

SMILES: O=C1NC2(CCN(C(=O)c3ccc(Cl)cc3)CC2)C(=O)N[C@@H](Cc2ccccc2)C(=O)NCCSSCCC(=O)N2CCC[C@H]1C2 [X B4 D6 F + Acid 25]
fraction fluorescent probe displaced [1]: 0.0462
fraction fluorescent probe displaced [2]: 0.10

SMILES: O=C1NC2(CCN(C(=O)c3ccc(Cl)cc3)CC2)C(=O)N[C@@H](Cc2c[nH]c3ccccc23)C(=O)NCCSSCCC(=O)N2CCC[C@H]1C2 [X B4 D6 W Acid 25]
fraction fluorescent probe displaced, Screen (Acid 25): 0.38
fraction fluorescent probe displaced, Replicate (Acid 25, replicate): 0.25

SMILES: O=C(C=Cc1ccccc1)NCC1NC(=O)C(Cc2ccccc2)NC(=O)C2CCCN(C2)C(=O)CCSSCCNC1=O (stereo not shown) [X B4 F D3 Acid 91]
fraction fluorescent probe displaced, Screen (Acid 91): 0.03
fraction fluorescent probe displaced, Replicate (Acid 91, replicate): -0.00827

SMILES: O=C(NC1CC2C(=O)NCCSSCCC(=O)N3CCCC(C3)C(=O)NC(Cc3ccccc3)C(=O)N2C1)c1ccc(Cl)cc1 (stereo not shown) [X B4 F D5 Acid 25]
fraction fluorescent probe displaced, Screen (Acid 25): 0.0569
fraction fluorescent probe displaced, Replicate (Acid 25, replicate): 0.12

SMILES: O=C(C=Cc1ccccc1)NC1CC2C(=O)NCCSSCCC(=O)N3CCCC(C3)C(=O)NC(Cc3ccccc3)C(=O)N2C1 (stereo not shown) [X B4 F D5 Acid 91]
fraction fluorescent probe displaced, Screen (Acid 91): -0.05
fraction fluorescent probe displaced, Replicate (Acid 91, replicate): -0.0333

SMILES: O=C1NC(Cc2ccccc2)C(=O)NC2(CCN(C(=O)c3ccc(Cl)cc3)CC2)C(=O)NCCSSCCC(=O)N2CCCC1C2 (stereo not shown) [X B4 F D6 + Acid 25]
fraction fluorescent probe displaced [1]: 0.09
fraction fluorescent probe displaced [2]: 0.17

SMILES: O=C1N[C@@H](Cc2ccccc2)C(=O)NC2(CCN(C(=O)/C=C/c3ccccc3)CC2)C(=O)NCCSSCCC(=O)N2CCC[C@H]1C2 [X B4 F D6 + Acid 91]
fraction fluorescent probe displaced [3]: 0.08
fraction fluorescent probe displaced [4]: 0.0168

SMILES: O=C1NC(Cc2ccccc2)C(=O)N2CCN(C(=O)c3ccc(Cl)cc3)CC2C(=O)NCCSSCCC(=O)N2CCCC1C2 (stereo not shown) [X B4 F D7 Acid 25]
fraction fluorescent probe displaced, Screen (Acid 25): 0.09
fraction fluorescent probe displaced, Replicate (Acid 25, replicate): 0.10

SMILES: O=C(C=Cc1ccccc1)NC1CC2C(=O)NCCSSCCC(=O)N3CCCC(C3)C(=O)NC(Cc3c[nH]c4ccccc34)C(=O)N2C1 (stereo not shown) [X B4 W D5 Acid 91]
fraction fluorescent probe displaced, Screen (Acid 91): 0.0563
fraction fluorescent probe displaced, Replicate (Acid 91, replicate): 0.12

SMILES: O=C1N[C@@H](Cc2c[nH]c3ccccc23)C(=O)NC2(CCN(C(=O)c3ccc(Cl)cc3)CC2)C(=O)NCCSSCCC(=O)N2CCC[C@H]1C2 [X B4 W D6 Acid 25]
fraction fluorescent probe displaced, Screen (Acid 25): 0.22
fraction fluorescent probe displaced, Replicate (Acid 25, replicate): 0.20

SMILES: O=C1NC(Cc2c[nH]c3ccccc23)C(=O)N2CCN(C(=O)c3ccc(Cl)cc3)CC2C(=O)NCCSSCCC(=O)N2CCCC1C2 (stereo not shown) [X B4 W D7 Acid 25]
fraction fluorescent probe displaced, Screen (Acid 25): 0.25
fraction fluorescent probe displaced, Replicate (Acid 25, replicate): 0.17

SMILES: O=C1CCSSCCNC(=O)[C@H](Cc2ccccc2)NC(=O)[C@H](CNC(=O)c2ccc(Cl)cc2)NC(=O)c2cccc(c2)CN1 [X B5 D3 F Acid 25]
fraction fluorescent probe displaced, Screen (Acid 25): 0.0244
fraction fluorescent probe displaced, Replicate (Acid 25, replicate): 0.10

Further lines, results first:

fraction fluorescent probe displaced, Screen (Acid 25): 0.19
fraction fluorescent probe displaced, Replicate (Acid 25, replicate): 0.22
SMILES: O=C1CCSSCCNC(=O)C2CC(NC(=O)c3ccc(Cl)cc3)CN2C(=O)C(Cc2c[nH]c3ccccc23)NC(=O)CCN1 (stereo not shown) [X B2 W D5 Acid 25]

fraction fluorescent probe displaced, Screen (Acid 25): 0.0244
fraction fluorescent probe displaced, Replicate (Acid 25, replicate): 0.0211
SMILES: O=C1CCSSCCNC(=O)C2(CCN(C(=O)c3ccc(Cl)cc3)CC2)NC(=O)[C@H](Cc2c[nH]c3ccccc23)NC(=O)CCN1 [X B2 W D6 Acid 25]

fraction fluorescent probe displaced, Screen (Acid 25): 0.09
fraction fluorescent probe displaced, Replicate (Acid 25, replicate): 0.12
SMILES: O=C(NC[C@@H]1NC(=O)[C@H]2CCCN(C2)C(=O)CCSSCCNC(=O)[C@H](Cc2ccccc2)NC1=O)c1ccc(Cl)cc1 [X B4 D3 F Acid 25]

fraction fluorescent probe displaced, Screen (Acid 14): 0.63
fraction fluorescent probe displaced, Replicate (Acid 14, replicate): 0.58
SMILES: O=C(NC[C@@H]1NC(=O)[C@H]2CCCN(C2)C(=O)CCSSCCNC(=O)[C@H](Cc2c[nH]c3ccccc23)NC1=O)c1ccc(Cl)s1 [X B4 D3 W Acid 14]

fraction fluorescent probe displaced (crude reaction of macrocycle scaffold with Acid 14, (initial screen)): 0.25
fraction fluorescent probe displaced (crude reaction of macrocycle scaffold with Acid 14, replicate): 0.12
SMILES: O=C1NC2(CCN(C(=O)c3ccc(Cl)s3)CC2)C(=O)N[C@@H](Cc2ccccc2)C(=O)NCCSSCCC(=O)N2CCC[C@H]1C2 [X B4 D6 F + Acid 14]

fraction fluorescent probe displaced [3]: 0.12
fraction fluorescent probe displaced [4]: 0.12
SMILES: O=C1NC2(CCN(C(=O)/C=C/c3ccccc3)CC2)C(=O)N[C@@H](Cc2ccccc2)C(=O)NCCSSCCC(=O)N2CCC[C@H]1C2 [X B4 D6 F + Acid 91]

fraction fluorescent probe displaced, Screen (Acid 91): 0.16
fraction fluorescent probe displaced, Replicate (Acid 91, replicate): 0.09
SMILES: O=C1NC2(CCN(C(=O)/C=C/c3ccccc3)CC2)C(=O)N[C@@H](Cc2c[nH]c3ccccc23)C(=O)NCCSSCCC(=O)N2CCC[C@H]1C2 [X B4 D6 W Acid 91]

fraction fluorescent probe displaced [1]: 0.15
fraction fluorescent probe displaced [2]: 0.10
SMILES: O=C1NCCSSCCC(=O)N2CCCC(C2)C(=O)N2CCN(C(=O)c3ccc(Cl)cc3)CC2C(=O)NC1Cc1ccccc1 (stereo not shown) [X B4 D7 F + Acid 25]

fraction fluorescent probe displaced, Screen (Acid 25): 0.32
fraction fluorescent probe displaced, Replicate (Acid 25, replicate): 0.17
SMILES: O=C1NCCSSCCC(=O)N2CCCC(C2)C(=O)N2CCN(C(=O)c3ccc(Cl)cc3)CC2C(=O)NC1Cc1c[nH]c2ccccc12 (stereo not shown) [X B4 D7 W Acid 25]

fraction fluorescent probe displaced, Screen (Acid 14): 0.08
fraction fluorescent probe displaced, Replicate (Acid 14, replicate): 0.10
SMILES: O=C(NC[C@@H]1NC(=O)[C@H](Cc2ccccc2)NC(=O)[C@H]2CCCN(C2)C(=O)CCSSCCNC1=O)c1ccc(Cl)s1 [X B4 F D3 Acid 14]

fraction fluorescent probe displaced, Screen (Acid 25): 0.09
fraction fluorescent probe displaced, Replicate (Acid 25, replicate): 0.12
SMILES: O=C(NC[C@@H]1NC(=O)[C@H](Cc2ccccc2)NC(=O)[C@H]2CCCN(C2)C(=O)CCSSCCNC1=O)c1ccc(Cl)cc1 [X B4 F D3 Acid 25]

fraction fluorescent probe displaced, Screen (Acid 91): 0.00268
fraction fluorescent probe displaced, Replicate (Acid 91, replicate): -0.00827
SMILES: O=C1NC(Cc2ccccc2)C(=O)N2CCN(C(=O)C=Cc3ccccc3)CC2C(=O)NCCSSCCC(=O)N2CCCC1C2 (stereo not shown) [X B4 F D7 Acid 91]

fraction fluorescent probe displaced, Screen (Acid 14): 0.11
fraction fluorescent probe displaced, Replicate (Acid 14, replicate): 0.10
SMILES: O=C(NC[C@@H]1NC(=O)[C@H](Cc2c[nH]c3ccccc23)NC(=O)[C@H]2CCCN(C2)C(=O)CCSSCCNC1=O)c1ccc(Cl)s1 [X B4 W D3 Acid 14]

fraction fluorescent probe displaced, Screen (Acid 25): 0.09
fraction fluorescent probe displaced, Replicate (Acid 25, replicate): 0.22
SMILES: O=C(NCC1NC(=O)C(Cc2c[nH]c3ccccc23)NC(=O)C2CCCN(C2)C(=O)CCSSCCNC1=O)c1ccc(Cl)cc1 (stereo not shown) [X B4 W D3 Acid 25]

fraction fluorescent probe displaced, Screen (Acid 91): 0.16
fraction fluorescent probe displaced, Replicate (Acid 91, replicate): 0.09
SMILES: O=C(/C=C/c1ccccc1)NC[C@@H]1NC(=O)[C@H](Cc2c[nH]c3ccccc23)NC(=O)[C@H]2CCCN(C2)C(=O)CCSSCCNC1=O [X B4 W D3 Acid 91]

fraction fluorescent probe displaced, Screen (Acid 14): 0.08
fraction fluorescent probe displaced, Replicate (Acid 14, replicate): -0.03
SMILES: O=C(N[C@H]1C[C@H]2C(=O)NCCSSCCC(=O)N3CCC[C@@H](C3)C(=O)N[C@@H](Cc3c[nH]c4ccccc34)C(=O)N2C1)c1ccc(Cl)s1 [X B4 W D5 Acid 14]

fraction fluorescent probe displaced, Screen (Acid 25): 0.15
fraction fluorescent probe displaced, Replicate (Acid 25, replicate): 0.20
SMILES: O=C(NC1CC2C(=O)NCCSSCCC(=O)N3CCCC(C3)C(=O)NC(Cc3c[nH]c4ccccc34)C(=O)N2C1)c1ccc(Cl)cc1 (stereo not shown) [X B4 W D5 Acid 25]

fraction fluorescent probe displaced, Screen (Acid 14): 0.08
fraction fluorescent probe displaced, Replicate (Acid 14, replicate): 0.22
SMILES: O=C1N[C@@H](Cc2c[nH]c3ccccc23)C(=O)NC2(CCN(C(=O)c3ccc(Cl)s3)CC2)C(=O)NCCSSCCC(=O)N2CCC[C@H]1C2 [X B4 W D6 Acid 14]

fraction fluorescent probe displaced, Screen (Acid 14): 0.14
fraction fluorescent probe displaced, Replicate (Acid 14, replicate): 0.25
SMILES: O=C1NC(Cc2c[nH]c3ccccc23)C(=O)N2CCN(C(=O)c3ccc(Cl)s3)CC2C(=O)NCCSSCCC(=O)N2CCCC1C2 (stereo not shown) [X B4 W D7 Acid 14]

fraction fluorescent probe displaced, Screen (Acid 14): -0.00483
fraction fluorescent probe displaced, Replicate (Acid 14, replicate): 0.12
SMILES: O=C1CCSSCCNC(=O)C(Cc2ccccc2)NC(=O)C(CNC(=O)c2ccc(Cl)s2)NC(=O)c2cccc(c2)CN1 (stereo not shown) [X B5 D3 F Acid 14]
